In patent US20100204129A1, “USE OF A PEPTIDE AS A THERAPEUTIC AGENT” (priority 2008, published 2010):

Assays:
HIV-1IIIB = test: HIV-1 antiviral assay (CPE reduction, MTS); assay type: cell-based; settings: peptide 10 micrograms per ml, 6 days post-infection
CEM-SS cells = test: Cytotoxicity in HIV-1 assay (MTS cell viability); settings: CEM-SS cells, cells plus peptide only; peptide 10 micrograms per ml; MTS
MRC-5 cells = settings: human, 6 days
Protocol: For cytotoxicity testing, MRC-5 cells were seeded at 2,500 cells/well in 96 well plates using growth medium. […] The following day, peptide was added and tested in duplicates. After a 6 days incubation period, cell viability was measured using CellTiter 96 Solution (Promega). Plates were incubated for additional 4 hours at 37° C. Adhesive plate sealers were used in place of lids, the sealed plates were inverted several times to mix the soluble formazan product and the plate was read spectrophotometrically at 490/560 nm with a Molecular Devices Vmax plate reader.

HCMV strain AD169 = test: HCMV plaque reduction assay in MRC-5 cells; settings: HCMV in MRC-5 cells; peptide 10 micrograms per ml; 7-10 days
HepG2-2.2.15 cells = settings: peptide 10 micrograms per ml, dye uptake assay, % cell control

Cc1cn([C@H]2C[C@H](N=[N+]=[N-])[C@@H](CO)O2)c(=O)[nH]c1=O [AZT, reference compound] was tested, and the “% CPE reduction in HIV-1 infected CEM-SS cells” value (HIV-1IIIB) was 99% and the “% Cell viability” value (CEM-SS cells) was 97%.
For Nc1nc(O)c2ncn(COC(CO)CO)c2n1 [Ganciclovir, reference compound], the “% Cell viability” value (MRC-5 cells) was 100% and the “% plaque reduction” value (HCMV strain AD169) was 100%.
CC(C)(C)NC(=O)[C@@H]1CN(Cc2cccnc2)CCN1C[C@@H](O)C[C@@H](Cc1ccccc1)C(=O)N[C@H]1c2ccccc2C[C@H]1O [Indinavir, indinavir] was tested, and the “% CPE reduction in HIV-1 infected CEM-SS cells” value (HIV-1IIIB) was 100%.
With Nc1ccn([C@@H]2CS[C@H](CO)O2)c(=O)n1 [3TC, Lamivudine, reference compound] the “% Cell viability” value (HepG2-2.2.15 cells) was 95.8%.
